These results are taken from ChEMBL document CHEMBL1128046, “Inhibitors of acyl-coa:cholesterol acyltransferase (ACAT). 15. sulfonylurea inhibitors with excellent hypocholesterolemic activity in vivo” (Bioorg Med Chem Lett, 1995).

Each structure is given as a SMILES string. Active and inactive are the calls of the source. No cut-off for these calls is given here.

Assay [1] deals with Rattus norvegicus. The assay is described as follows: Hypocholesterolemic activity expressed as percent change in total cholesterol in acute cholesterol fed rats (APCC) at dose 30 mg/kg. Type of assay: functional.
Assay [2] has as its system Rattus norvegicus. Description: Hypocholesterolemic activity expressed as percent change in total cholesterol in chronic cholesterol fed rats (CPCC) at dose 3 mg/kg. Type of assay: functional.
Assay [3] relates to Rattus norvegicus. Description: Hypocholesterolemic activity expressed as percent change in total cholesterol in chronic cholesterol fed rats (CPCC) at dose 30 mg/kg. Type of assay: functional.
The target of assay [4] is T1, Sterol O-acyltransferase 1 (Rattus norvegicus, UniProt O70536).
T1 sequence (O70536 whole entry): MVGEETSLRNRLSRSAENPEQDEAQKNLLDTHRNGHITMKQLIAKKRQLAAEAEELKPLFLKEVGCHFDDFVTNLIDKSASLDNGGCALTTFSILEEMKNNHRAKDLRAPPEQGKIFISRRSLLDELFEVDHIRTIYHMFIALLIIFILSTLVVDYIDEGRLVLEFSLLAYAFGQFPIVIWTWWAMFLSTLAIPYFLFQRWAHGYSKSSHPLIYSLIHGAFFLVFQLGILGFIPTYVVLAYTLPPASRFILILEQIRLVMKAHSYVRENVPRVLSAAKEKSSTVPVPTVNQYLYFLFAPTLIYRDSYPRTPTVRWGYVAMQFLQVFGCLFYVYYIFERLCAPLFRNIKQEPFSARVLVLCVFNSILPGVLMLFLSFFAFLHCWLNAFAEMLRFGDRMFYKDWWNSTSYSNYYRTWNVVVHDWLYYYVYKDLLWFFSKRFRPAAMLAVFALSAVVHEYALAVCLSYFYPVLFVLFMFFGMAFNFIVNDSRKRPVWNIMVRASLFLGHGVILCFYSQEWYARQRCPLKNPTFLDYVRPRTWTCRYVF
Description: Inhibition of Acyl-CoA: Cholesterol Acyltransferase (ACAT) in liver microsomes of cholesterol fed rats. Further details: species or system Microsome.

Assay [5] relates to Rattus norvegicus. The assay is described as follows: Hypocholesterolemic activity expressed as percent change in total cholesterol in acute cholesterol fed rats (APCC) at dose 3 mg/kg. Type of assay: functional.
Assay [6] addresses T2, O-acyltransferase (Oryctolagus cuniculus, UniProt G1SFD9). The assay is described as follows: Inhibition of Acyl-CoA: Cholesterol Acyltransferase (ACAT) in intestinal microsomes of cholesterol fed rabbits. Details: species or system Intestine.
Assay [7] concerns the target T2, O-acyltransferase. Description: (§1) Compound at 5 uM concentration was tested in vitro for inhibition of Acyl-CoA: Cholesterol Acyltransferase (ACAT) in intestinal microsomes of cholesterol fed rabbits. Further details: species or system Intestine.
Assay [8] relates to Rattus norvegicus. Description: Hypocholesterolemic activity expressed as percent change in total cholesterol in chronic cholesterol fed rats (CPCC) at dose 3 mg/kg; NC means no change. Format: functional, organism-based. Further details: dose 3 mg/kg.
For assay [9], the target named is T1, Sterol O-acyltransferase 1. The assay is described as follows: (§2) Compound at 5 uM concentration was tested in vitro for inhibition of Acyl-CoA: Cholesterol Acyltransferase (ACAT) in liver microsomes of cholesterol fed rats. Further details: species or system Microsome. (In general: Microsomes from liver hold many membrane-bound enzymes, among them those of drug oxidation.)

Assay [10] concerns Rattus norvegicus. Description: Hypocholesterolemic activity expressed as percent change in total cholesterol in acute cholesterol fed rats (APCC) at dose 30 mg/kg; NC means no change. Format: functional, organism-based. Details: dose 30 mg/kg.
The target in assay [11] is T3, Sterol O-acyltransferase 1 (Rattus norvegicus) (UniProt O70536).
T3 sequence (whole entry): T1 sequence (O70536 whole entry)
The description is as §2. The settings on record: Microsome.

Assay [12] has as its target T4, Acyl-CoA:cholesterol acyltransferase (Oryctolagus cuniculus) (UniProt Q95214).
T4 sequence (whole entry): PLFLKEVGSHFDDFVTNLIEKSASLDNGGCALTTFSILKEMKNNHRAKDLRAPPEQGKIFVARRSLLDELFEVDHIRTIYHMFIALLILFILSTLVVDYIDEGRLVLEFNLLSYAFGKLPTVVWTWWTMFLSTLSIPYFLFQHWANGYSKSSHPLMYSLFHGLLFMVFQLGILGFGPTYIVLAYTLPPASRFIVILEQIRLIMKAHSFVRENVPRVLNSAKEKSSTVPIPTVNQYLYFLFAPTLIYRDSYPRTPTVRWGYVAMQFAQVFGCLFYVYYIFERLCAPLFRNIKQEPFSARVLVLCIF
The description is as §1. The settings on record: Intestine.

In assay [13] the target is T3, Sterol O-acyltransferase 1 (Rattus norvegicus). Description: Compound at 10 uM concentration was tested in vitro for inhibition of Acyl-CoA: Cholesterol Acyltransferase (ACAT) in liver microsomes of cholesterol fed rats. The settings on record: Microsome.

T2 sequence (G1SFD9 1-524): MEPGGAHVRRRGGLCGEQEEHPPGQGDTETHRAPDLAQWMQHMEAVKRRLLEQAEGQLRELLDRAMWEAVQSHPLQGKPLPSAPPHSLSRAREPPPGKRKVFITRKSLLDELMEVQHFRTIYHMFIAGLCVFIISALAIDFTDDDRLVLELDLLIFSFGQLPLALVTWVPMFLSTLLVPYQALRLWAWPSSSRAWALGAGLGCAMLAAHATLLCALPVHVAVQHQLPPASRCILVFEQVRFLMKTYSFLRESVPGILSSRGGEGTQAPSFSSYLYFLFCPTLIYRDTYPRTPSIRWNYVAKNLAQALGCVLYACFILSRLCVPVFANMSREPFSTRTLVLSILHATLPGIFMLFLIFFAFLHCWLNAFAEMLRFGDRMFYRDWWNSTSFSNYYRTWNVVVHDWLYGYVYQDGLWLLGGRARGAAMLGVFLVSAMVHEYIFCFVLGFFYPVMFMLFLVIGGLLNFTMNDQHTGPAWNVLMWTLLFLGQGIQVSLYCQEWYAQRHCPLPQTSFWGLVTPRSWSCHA

One may read the IC50 as the midpoint of a concentration-inhibition curve. High values mean a need for much substance, low ones inhibition by little substance. As to `CCCCCCCCCCCCCC(C)S(=O)(=O)NC(=O)Nc1c(C(C)C)cccc1C(C)C` (stereo not given), the Change in the assay with Rattus norvegicus [1] is recorded as -76%; with Rattus norvegicus [2], -26%; in the assay with Rattus norvegicus [3], -61%; with Rattus norvegicus [5] it was -61%. In addition, the IC50 in assay [4] is 830 nM.

`CCCCCCCCCCCCCCCCC(C)S(=O)(=O)NC(=O)Nc1c(C(C)C)cccc1C(C)C` (stereo not given): the Change is reported as -76% with Rattus norvegicus [1], -36% in the assay on Rattus norvegicus [3] and -58% with Rattus norvegicus [5]. Moreover, in assay [4], the IC50 was 1390 nM.

Consider `CCCCCCCCCCCCCCCCS(=O)(=O)NC(=O)Nc1c(C(C)C)cccc1C(C)C`, for which the figures for the Change with Rattus norvegicus [1], in the assay on Rattus norvegicus [3] and with Rattus norvegicus [5] were -64%, -10% and -58%, respectively. For the same compound, the values for the IC50 (in [4]; against O-acyltransferase [6]) were 1270 nM and 1350 nM, respectively.

For `CCCCCCCCC(C)S(=O)(=O)NC(=O)Nc1c(C(C)C)cccc1C(C)C` (stereo not given), the Change was -69% in the assay with Rattus norvegicus [1], -46% in the assay on Rattus norvegicus [2], -58% with Rattus norvegicus [3] and -32% in the assay on Rattus norvegicus [5]. The compound further came in with a half-maximal inhibitory concentration (IC50) in assay [4] of 1300 nM.

Turning to `CCCCCCCCC(c1ccccc1)S(=O)(=O)NC(=O)Nc1c(C(C)C)cccc1C(C)C` (stereo not given), the Change with Rattus norvegicus [1] is on record as -75%; in the assay with Rattus norvegicus [2] it was -48%; in the assay with Rattus norvegicus [3] it was -74%; in the assay with Rattus norvegicus [5], -62%. Further, the IC50 in [4] is 9200 nM; on O-acyltransferase [7], 1100 nM.

For `CCCCCCCCCCCCCC(C)(C)S(=O)(=O)NC(=O)Nc1c(C(C)C)cccc1C(C)C`, the Change in the assay on Rattus norvegicus [1] is -52%; in the assay with Rattus norvegicus [2], -26%; with Rattus norvegicus [3] it was -59%; in the assay on Rattus norvegicus [5] it was -55%. In assay [4], half-maximal inhibition (IC50) required 682 nM.

As to `CC(C)c1cccc(C(C)C)c1OC(=O)[N-]S(=O)(=O)Oc1c(C(C)C)cccc1C(C)C.[Na+]`, the Change in the assay on Rattus norvegicus [1] is given as -74%; with Rattus norvegicus [2] it was -64%; in the assay with Rattus norvegicus [3], -64%; in the assay with Rattus norvegicus [5], -59%.

In the case of `CCCCCCCCCCCCCS(=O)(=O)NC(=O)Nc1c(C(C)C)cccc1C(C)C`, the Change with Rattus norvegicus [1] is reported as -62%; with Rattus norvegicus [3] it was -69%; with Rattus norvegicus [5] it was -42%. Further, the IC50 in assay [4] turned out to be 2000 nM; against O-acyltransferase [6], 1200 nM.

Take `CCCCCCCCCCCCCCS(=O)(=O)NC(=O)Nc1c(C(C)C)cccc1C(C)C`: the Change is listed as -56% in the assay with Rattus norvegicus [1], -46% in the assay on Rattus norvegicus [2], -58% in the assay on Rattus norvegicus [3] and -60% in the assay with Rattus norvegicus [5]. For the same compound, in assay [4], the IC50 is 940 nM.

Turning to `CCCCCCCCCCCCCC(c1ccccc1)S(=O)(=O)NC(=O)Nc1c(C(C)C)cccc1C(C)C` (stereo not given), the Change was -72% in the assay with Rattus norvegicus [1], -62% with Rattus norvegicus [3] and -69% in the assay on Rattus norvegicus [5]. Moreover, the Change entry with Rattus norvegicus [8] is “inactive”. Further, the IC50 in assay [4] worked out at 2300 nM.

Consider `CCCCCCCCCCCCCCS(=O)(=O)N(Cc1ccccc1)C(=O)Nc1c(C(C)C)cccc1C(C)C`, for which the IC50 was 38000 nM in [9] and 520 nM at O-acyltransferase [6]. Also, the Change result in the assay on Rattus norvegicus [10] is “inactive”.

Consider `CCCCCCCCCCS(=O)(=O)NC(=O)Nc1c(C(C)C)cccc1C(C)C`, for which the Change in the assay with Rattus norvegicus [1] was -52%; with Rattus norvegicus [3], -47%; in the assay on Rattus norvegicus [5] it was -40%. The values for the IC50 (in assay [4]; on O-acyltransferase [6]) were 13600 nM and 11100 nM, respectively.

As to `CCCCCCCCCCCCCC(C)(C)S(=O)(=O)NC(=O)Nc1c(OC)cc(OC)cc1OC`, the results for the Change in the assay on Rattus norvegicus [1], in the assay on Rattus norvegicus [2] and in the assay on Rattus norvegicus [5] were -76%, -13% and -18%, respectively. In [4], this compound displayed an IC50 of 8100 nM.

As a reminder, the inhibition is how much of the control response was suppressed. A lower inhibition goes with a response near the control. As for `CCCCCCCCCCCCCCS(=O)(=O)NC(=O)Nc1c(OC)cc(OC)cc1OC`, the Change in the assay with Rattus norvegicus [1] was -47%; with Rattus norvegicus [5], -31%. Moreover, the inhibition in assay [11] is 40%.

Take `CCCCCCCCCCCCS(=O)(=O)N(C)C(=O)Nc1c(C(C)C)cccc1C(C)C`: the Change in the assay with Rattus norvegicus [1] is on record as -49%; with Rattus norvegicus [5], -18%. Besides, the IC50 was found to be 675 nM in assay [4] and 86 nM on O-acyltransferase [6].

On to `CCCCCCCCS(=O)(=O)NC(=O)Nc1c(C(C)C)cccc1C(C)C`, for which the Change was -74% with Rattus norvegicus [1], -59% in the assay on Rattus norvegicus [3] and -31% in the assay with Rattus norvegicus [5]. The compound further yielded an inhibition in assay [12] of 24%. Moreover, in [4], half-maximal inhibition (IC50) was put at 22600 nM.

For `CCCCCCCCCCCCCCCCC(C)S(=O)(=O)NC(=O)Nc1c(OC)cc(OC)cc1OC` (stereo not given), the Change is -53% with Rattus norvegicus [1], -18% with Rattus norvegicus [3] and -12% in the assay on Rattus norvegicus [5]. Further, half-maximal inhibition in assay [4] (IC50) required 85 nM.

Turning to `CCCCCCCCCCCCCCS(=O)(=O)NC(=O)Nc1ccc(F)cc1F`, the inhibition is 49% in [12] and 0% in [13]. In addition, in the assay with Rattus norvegicus [5], the Change was -14%.

`CCCCCCCCCCCCS(=O)(=O)NC(=O)Nc1c(C(C)C)cccc1C(C)C`: the Change in the assay on Rattus norvegicus [1] is -63%; in the assay with Rattus norvegicus [2], -35%; in the assay with Rattus norvegicus [3], -53%; in the assay with Rattus norvegicus [5], -59%. The figures for the IC50 (in assay [4]; on O-acyltransferase [6]) were 3300 nM and 2330 nM, respectively.

For the compound `CCCCCCCCCCCCCCS(=O)(=O)N(C)C(=O)Nc1c(C(C)C)cccc1C(C)C`, the Change with Rattus norvegicus [1] is on record as -48%; with Rattus norvegicus [5] it was -20%. The inhibition in [12] is 34%. In assay [4], this compound displayed an IC50 of 8830 nM.
